Test results published in patent publication US20090270350A1, “Pyridinone Pyrazole Urea and Pyrimidinone Pyrazole Urea Derivatives” (PFIZER INC., priority 2006, published 2009).

Legend:
[1] = target: p38α (Homo sapiens, UniProt Q16539); assay: p38α/MK2 cascade assay; format: biochemical; settings: Table 1; inhibitors preincubated with p38α for 40 minutes; phosphorylation of Hsp27 peptide by MK-2, Caliper LabChip 3000; read-out: p38a/MK2 Cascade 40 min Pre-Incuabtion (% Inhibition): IC50
Summary of the method: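 In a cascade format, p38α was preincubated 40 min with inhibitor (1000–0.05 nM) before adding 1 nM nonactive MK2 (54-400), 5 μM MgATP and 0.5 μM FITC-Hsp27 peptide. Reaction ran 60 min in HEPES pH 7.5 with MgCl2, DTT, 2% DMSO, then EDTA-quenched. Peptide phosphorylation was measured by Caliper mobility shift to give IC50.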

Chain of p38α (Q16539 whole entry): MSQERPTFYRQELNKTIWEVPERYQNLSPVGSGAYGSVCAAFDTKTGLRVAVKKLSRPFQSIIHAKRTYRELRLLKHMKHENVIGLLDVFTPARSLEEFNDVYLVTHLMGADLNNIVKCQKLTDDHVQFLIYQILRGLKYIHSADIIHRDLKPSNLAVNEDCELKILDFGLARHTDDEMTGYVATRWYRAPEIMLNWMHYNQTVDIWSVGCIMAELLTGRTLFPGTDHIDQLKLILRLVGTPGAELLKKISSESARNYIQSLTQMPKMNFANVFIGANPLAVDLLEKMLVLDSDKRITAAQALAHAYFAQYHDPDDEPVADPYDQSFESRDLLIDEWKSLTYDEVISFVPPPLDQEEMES

| SMILES | IC50 [1] [nM] | melting point [°C] |
| --- | --- | --- |
| CNC(=O)CNC(=O)c1ccc(C)c(-n2c(C)cc(OCc3ccccc3CNC(=O)Nc3cc(C(C)(C)C)nn3-c3ccc(Cl)c(O)c3)c(Cl)c2=O)c1 [Example 167, 3-[4-(2-{3-[5-tert-Butyl-2-(4-chloro-3-hydroxy-phenyl)-2H-pyrazol-3-yl]-ureidomethyl}-benzyloxy)-3-chloro-6-methyl-2-oxo-2H-pyridin-1-yl]-4-methyl-N-methylcarbamoylmethyl-benzamide] | 1.7 | 179 to 181 |
| Cc1ccc(C(=O)NCCN(C)C)cc1-n1c(C)cc(OCc2ccc(F)cc2CNC(=O)Nc2cc(C(C)(C)C)nn2-c2cccc(OCCO)c2)c(Cl)c1=O [Example 178] | 1.4 | 158 to 160 |
| Cc1ccc(C(=O)OCCO)cc1-n1c(C)cc(OCc2ccc(F)cc2CNC(=O)Nc2cc(C(C)(C)C)nn2-c2cccc(OCCO)c2)c(Cl)c1=O [Example 180, 3-{4-[2-(3-{5-tert-butyl-2-[3-(2-hydroxy-ethoxy)-phenyl]-2H-pyrazol-3-yl}-ureidomethyl)-4-fluoro-benzyloxy]-3-chloro-6-methyl-2-oxo-2H-pyridin-1-yl}-4-methyl-benzoic acid 2-hydroxy-ethyl ester] | – | 180 to 181 |

Second part, the compound after the results:

| IC50 [1] [nM] | melting point [°C] | SMILES |
| --- | --- | --- |
| 2.5 | 192 to 193 | Cc1ccc(C(=O)NC(C)C(N)=O)cc1-n1c(C)cc(OCc2ccccc2CNC(=O)Nc2cc(C(C)(C)C)nn2-c2ccc(O)c(Cl)c2)c(Cl)c1=O (stereo in doubt) [Example 159, (R)-3-[4-(2-{3-[5-tert-butyl-2-(3-chloro-4-hydroxy-phenyl)-2H-pyrazol-3-yl]-ureidomethyl}-benzyloxy)-3-chloro-6-methyl-2-oxo-2H-pyridin-1-yl]-N-(1-carbamoyl-ethyl)-4-methyl-benzamide] |
| 3.5 | 209 to 211 | CNC(=O)CNC(=O)c1ccc(C)c(-n2c(C)cc(OCc3ccccc3CNC(=O)Nc3cc(C(C)(C)C)nn3-c3ccc(O)c(Cl)c3)c(Cl)c2=O)c1 [Example 156, 3-[4-(2-{3-[5-tert-butyl-2-(3-chloro-4-hydroxy-phenyl)-2H-pyrazol-3-yl]-ureidomethyl}-benzyloxy)-3-chloro-6-methyl-2-oxo-2H-pyridin-1-yl]-4-methyl-N-methylcarbamoylmethyl-benzamide] |
